The target of this assay is MetAP-2 (Homo sapiens, UniProt P50579). Put plainly: Biochemical activity testing of MetAP-2 (enzyme-coupled assay, Met-Ala-Ser substrate). Further details: N-terminal His tag human rec MetAP2 (prepared in house, AA 2-478, final concentration (fc) 123 nM); His tag (N); TEV cleavage site (N); made in house. The protocol: Biochemical Activity Testing of MetAP-2
MetAP-2 activity was determined by an enzyme-coupled assay using the tripeptide Met-Ala-Ser (MAS) as substrate and recombinant human MetAP-2 (His-Tev-MetAP-2, prepared at Merck). The released methionine is converted by L-amino acid oxidase (AAO) to oxidized Methionine and hydrogen peroxide is released. In a second step horse radish peroxidase catalyzes the oxidation of the leuko dye dianisidine to oxidized dianisidine using hydrogen peroxide as co-substrate. The produced dianisidine ox was detected photometrically as increase in absorbance at 450 nm. Met-AP2 activity was determined in a kinetic measurement mode. The release of one molecule methionine corresponds to the production of one molecule dianisidine ox. The MetAP2 enzymatic activity is directly corresponding to the increase in absorbance per time.
In detail, the assay was performed in 384 well microtiter plate (Greiner 78110 MTP, transparent) in a total reaction volume of 50 μl at 22° C. 0.35 μg of N-terminal His tag human rec MetAP2 (prepared in house, AA 2-478, final concentration (fc) 123 nM), 1 unit horse radish Peroxidase (Roche, Mannheim), 0.02 unit L-amino acid oxidase (Merck, Darmstadt), 0.6 mM dianisidine (Merck, Darmstadt, dissolved in 50 mM HCl, 10% DMSO) were incubated in the absence or presence of the test compound (10 dilution concentrations) in 100 mM Hepes, 50 mM NaCl, 50 μM MnCl2 at pH 7.0 for 15 min at 22° C. The reaction was started by the addition of 500 μM (fc) MAS peptide (Merck, Darmstadt). After mixing the first absorbance measurement was performed on an Envision multimode reader (Perkin-Elmer, Waltham) at wavelength of 450 nm. The reaction was incubated at 22° C. for additional 45 min and the second absorbance measurement was performed. The increase of absorbance per time was determined. The control value used was the inhibitor-free reaction with 0.5% DMSO (fc). As pharmacological inhibitor control Fumagillin (Merck, Darmstadt) in a final concentration of 5 μM was used. The inhibitory values (IC50) were determined using the program ASSAY ANALYZER® from GeneData (Basel, Switzerland).

Sequence of MetAP-2 (P50579 2-478): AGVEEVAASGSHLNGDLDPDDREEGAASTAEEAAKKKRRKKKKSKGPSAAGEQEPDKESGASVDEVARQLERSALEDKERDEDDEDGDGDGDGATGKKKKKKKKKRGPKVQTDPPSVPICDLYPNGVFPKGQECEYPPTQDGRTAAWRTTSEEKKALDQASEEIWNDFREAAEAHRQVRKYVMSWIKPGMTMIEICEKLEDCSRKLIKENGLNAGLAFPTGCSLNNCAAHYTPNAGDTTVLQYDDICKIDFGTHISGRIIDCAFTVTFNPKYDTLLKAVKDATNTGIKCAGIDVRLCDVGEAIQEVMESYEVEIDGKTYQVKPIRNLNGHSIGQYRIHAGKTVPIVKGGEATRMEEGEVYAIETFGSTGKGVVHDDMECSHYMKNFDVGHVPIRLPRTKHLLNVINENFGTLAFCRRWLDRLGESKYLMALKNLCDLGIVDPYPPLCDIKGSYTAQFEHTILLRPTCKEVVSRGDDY

By IC50 is commonly meant the concentration that gives 50% inhibition. Low readings indicate higher potency, high ones lower potency. In turn, `O=C1CCC(N2C(=O)c3cccc(NCCOCCOCCOCCOCCOCCNC(=O)c4cc5cc(N6CCC(O)(C(=O)NCc7cc(F)cc(F)c7)C6=O)ccc5[nH]4)c3C2=O)C(=O)N1` (centres unmarked) [Compound A1, 5-[3-[(3,5-difluorophenyl)methylcarbamoyl]-3-hydroxy-2-oxo-pyrrolidin-1-yl]-N-[2-[2-[2-[2-[2-[2-[[2-(2,6-dioxo-3-piperidyl)-1,3-dioxo-isoindolin-4-yl]amino]ethoxy]ethoxy]ethoxy]ethoxy]ethoxy]ethyl]-1H-indole-2-carboxamide] came in with an IC50 of 190 nM.

Compound `O=C1CCC(N2C(=O)c3ccc(NCCOCCOCCOCCOCCNC(=O)c4cc5cc(N6CCC(O)(C(=O)NCc7cc(F)cc(F)c7)C6=O)ccc5[nH]4)cc3C2=O)C(=O)N1` (centres unmarked) [Compound A2, 5-[3-[(3,5-difluorophenyl)methylcarbamoyl]-3-hydroxy-2-oxo-pyrrolidin-1-yl]-N-[2-[2-[2-[2-[2-[[2-(2,6-dioxo-3-piperidyl)-1,3-dioxo-isoindolin-5-yl]amino]-ethoxy]ethoxy]ethoxy]ethoxy]ethyl]-1H-indole-2-carboxamide] came in with an IC50 of 250 nM.

These data come from patent publication US20220062258A1, “Heterocyclic derivatives” (Merck Patent GmbH, priority 2019, published 2022).
